According to US12240862B2, “Inhibitors of peptidylarginine deiminases” (Gilead Sciences, Inc., priority 2020, dated 2025):
pIC50: −log10 of the molar value.

biological target: T1, human PAD4 (Homo sapiens, UniProt Q9UM07); assay: In vitro PAD4 BAEE biochemical assay; settings: human PAD4, BAEE substrate; 5 nM PAD4, 2 mM calcium chloride, 3 mM BAEE; geometric mean of multiple experiments
T1 construct: human PAD4 (NM_012387), A2P663, was PCR amplified; His-SUMO (N, cleaved yes); made in house; host or cells: E. coli BL21(DE3)
How it was run: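 Tag-free recombinant hPAD4 (5 nM), 2 mM CaCl2, 3 mM BAEE, 50 mM MOPS pH 7.6, 2 mM DTT; 30 min compound preincubation, 2 h reaction, all 25 °C. EDTA quench; ammonia read via o-phthalaldehyde amine coupling, 1 h.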

T1 sequence (Q9UM07 2-663): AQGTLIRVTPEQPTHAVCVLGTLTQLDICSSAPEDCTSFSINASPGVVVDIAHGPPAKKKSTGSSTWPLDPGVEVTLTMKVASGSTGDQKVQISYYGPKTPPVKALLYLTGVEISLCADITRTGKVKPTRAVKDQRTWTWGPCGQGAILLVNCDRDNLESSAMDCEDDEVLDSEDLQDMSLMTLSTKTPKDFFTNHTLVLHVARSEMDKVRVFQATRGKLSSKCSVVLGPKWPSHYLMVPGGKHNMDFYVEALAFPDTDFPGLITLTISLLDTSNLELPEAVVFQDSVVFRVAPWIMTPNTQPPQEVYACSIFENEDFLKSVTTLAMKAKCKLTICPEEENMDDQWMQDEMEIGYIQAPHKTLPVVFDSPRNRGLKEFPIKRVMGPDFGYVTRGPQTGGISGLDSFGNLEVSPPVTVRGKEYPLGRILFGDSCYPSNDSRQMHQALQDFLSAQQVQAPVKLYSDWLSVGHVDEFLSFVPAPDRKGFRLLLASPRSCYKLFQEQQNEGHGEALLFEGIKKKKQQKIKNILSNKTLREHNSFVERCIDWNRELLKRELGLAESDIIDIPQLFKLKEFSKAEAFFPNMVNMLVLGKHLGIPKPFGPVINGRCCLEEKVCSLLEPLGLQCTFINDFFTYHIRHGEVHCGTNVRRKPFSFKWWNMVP

Row | pIC50 | Compound
1 | 5.67 | COc1cc(C(=O)N2CCC[C@@H](N)C2)cc2nc(-c3cc4ccc(-c5cccc6c5CNC6=O)nc4n3CC3CC3)c(C)n12 [Example 602, 4-[2-[7-[(3~{R})-3-aminopiperidine-1-carbonyl]-5-methoxy-3-methylimidazo[1,2-a]pyridin-2-yl]-1-(cyclopropylmethyl)pyrrolo[2,3-b]pyridin-6-yl]-2,3-dihydroisoindol-1-one]
2 | 6.37 | COc1cc(C(=O)N2CCC[C@@H](N)C2)cc2nc(-c3cc4ccc(-c5cccnc5C)nc4n3CC3CC3)c(C)n12 [Example 604, [(3~{R})-3-aminopiperidin-1-yl]-[2-[1-(cyclopropylmethyl)-6-(2-methylpyridin-3-yl)pyrrolo[2,3-b]pyridin-2-yl]-5-methoxy-3-methylimidazo[1,2-a]pyridin-7-yl]methanone]
3 | 6.43 | COc1cc(C(=O)N2CCC[C@@H](N)C2)cc2nc(-c3cc4ccc(-c5cccnc5N5CCOCC5)nc4n3CC3CC3)c(C)n12 [Example 606, [(3~{R})-3-aminopiperidin-1-yl]-[2-[1-(cyclopropylmethyl)-6-(2-morpholin-4-ylpyridin-3-yl)pyrrolo[2,3-b]pyridin-2-yl]-5-methoxy-3-methylimidazo[1,2-a]pyridin-7-yl]methanone]
4 | 6.46 | COc1cc(C(=O)N2CCC[C@@H](N)C2)cc2nc(-c3cc4ccc(-c5cccnc5-c5ccccc5)nc4n3CC3CC3)c(C)n12 [Example 607, [(3~{R})-3-aminopiperidin-1-yl]-[2-[1-(cyclopropylmethyl)-6-(2-phenylpyridin-3-yl)pyrrolo [2,3-b]pyridin-2-yl]-5-methoxy-3-methylimidazo[1,2-a]pyridin-7-yl]methanone]

More lines, now with the values behind:

Row | Compound | pIC50
5 | COc1cc(C(=O)N2CCC[C@@H](N)C2)cc2nc(-c3cc4ccc(Cl)nc4n3CC3CC3)c(C)n12 [Example 599, [(3~{R})-3-aminopiperidin-1-yl]-[2-[6-chloro-1-(cyclopropylmethyl)pyrrolo [2,3-b]pyridin-2-yl]-5-methoxy-3-methylimidazo[1,2-a]pyridin-7-yl]methanone] | 5.72
6 | COc1cc(C(=O)N2CCC[C@@H](N)C2)cc2nc(-c3cc4ccc(-c5ccnc6c5CC(=O)N6)nc4n3CC3CC3)c(C)n12 [Example 600, 4-[2-[7-[(3~{R})-3-aminopiperidine-1-carbonyl]-5-methoxy-3-methylimidazo[1,2-a]pyridin-2-yl]-1-(cyclopropylmethyl)pyrrolo[2,3-b]pyridin-6-yl]-1,3-dihydropyrrolo[2,3-b] pyridin-2-one] | 6.18
7 | COc1cc(C(=O)N2CCC[C@@H](N)C2)cc2nc(-c3cc4ccc(-c5cccc6c5CN(C)C6=O)nc4n3CC3CC3)c(C)n12 [Example 601, 4-[2-[7-[(3~{R})-3-aminopiperidine-1-carbonyl]-5-methoxy-3-methylimidazo[1,2-a]pyridin-2-yl]-1-(cyclopropylmethyl)pyrrolo[2,3-b]pyridin-6-yl]-2-methyl-3~{H}-isoindol-1-one] | 5.16
8 | COc1cc(C(=O)N2CCC[C@@H](N)C2)cc2nc(-c3cc4ccc(-c5ccc(N)nc5C)nc4n3CC3CC3)c(C)n12 [Example 605, [2-[6-(6-amino-2-methylpyridin-3-yl)-1-(cyclopropylmethyl)pyrrolo[2,3-b]pyridin-2-yl]-5-methoxy-3-methylimidazo[1,2-a]pyridin-7-yl]-[(3~{R})-3-aminopiperidin-1-yl]methanone] | 6.29
9 | COc1cc(C(=O)N2CCC[C@@H](N)C2)cc2nc(-c3cc4ccc(C(C)C)nc4n3CC3CC3)c(C)n12 [Example 608, [(3~{R})-3-aminopiperidin-1-yl]-[2-[1-(cyclopropylmethyl)-6-propan-2-ylpyrrolo [2,3-b]pyridin-2-yl]-5-methoxy-3-methylimidazo [1,2-a]pyridin-7-yl] methanone] | 6.26
